# Assay results from patent US9340577B2, “HLA binding motifs and peptides and their uses” (priority 1992, dated 2016).
# pIC50: −log10 of the molar value. No end group written: not given here.
# Assays:
# Test in all cases: biochemical
# Assay type in all cases: binding
# A*6801 = A*6801 (Homo sapiens, UniProt P04439, A269V/D185E/E176V/E277Q/E87N/F33Y/G231S/I121M/I166T/I218V/L180W/L300P/L318F/N151K/P208A/P217A/Q86R/R169H/T345S)
# A*3301 = A*3301 (Homo sapiens, UniProt P04439, A270S/D185E/E176V/E277Q/E87N/F33T/G231S/H175R/I121M/I218V/I322F/K168Q/K210R/L300P/L318F/M331R/P217A/Q86R/Q94H/R138Q/T323A/T345S/T97I/V358M/Y195H)
# HLA-A11 (A*1101) = HLA-A11 (A*1101) (Homo sapiens, UniProt P04439, A114D/D185E/E176A/F33Y/L180Q/S129P/T187R)
# A31 (A*3101) = A31 (A*3101) (Homo sapiens, UniProt P04439, A270S/D185E/E176V/E277Q/F33T/G231S/G80R/H175R/I121M/I218V/I322F/K168Q/L300P/L318F/M331R/P217A/Q94H/R138Q/T323A/T345S/T97I/V358M)
Compound,pIC50 (A*6801),pIC50 (A*3301),pIC50 (HLA-A11 (A*1101)),pIC50 (A31 (A*3101)),active receptor (HLA-A11 (A*1101)),binding class for HLA-A11.2 (HLA-A11 (A*1101))
KQSRAAKRR [Peptide 88.0325],5.95,6.29,4.73,,,
LALTALIKPK [Peptide 9017.0227],5.46,< 4.70,7.47,,,
FVSFLSALK [Peptide 1587.37],7.89,,8.06,5.36,,
RTEVYQFAFK [Peptide 78.0062],5.48,5.04,,5.77,,
ILWKDIFHR [Peptide 9012.0201],6.63,8.32,,8.19,,
TVYAEPPR [Peptide 1556.10],7.68,4.93,,5.08,,
IVYRDNNPY [Peptide 78.0292],,< 4.70,7.74,< 4.70,,
EFVSFLSALK [Peptide 1587.36],7.66,7.77,,,,
TVTYSPALNK [Peptide 1556.40],6.78,< 4.70,,< 4.70,,
IVIKRRQQK [Peptide 9012.0206],5.48,5.04,,6.15,,
QQQMFLGTVK [Peptide 88.0219],5.83,< 4.70,7.89,,,
AQVLHVLKR [Peptide 88.0335],5.18,7.19,7.10,,,
LQHASTSTPK [Peptide 88.0224],,< 4.70,7.70,5.23,,
"AVDLYHFLK [Peptide 940-06, reference compound]",,,,,10%,
CC(C)C[C@H](NC(=O)[C@H](CCCNC(=N)N)NC(=O)[C@H](Cc1ccccc1)NC(=O)CNC(=O)[C@@H](N)Cc1ccc(O)cc1)C(=O)NCC(=O)N[C@@H](Cc1ccccc1)C(=O)N[C@@H](CC(C)C)C(=O)N[C@@H](Cc1c[nH]cn1)C(=O)O [Peptide 1556.26],,5.00,7.72,5.49,,
GTGISYGRK [Peptide 66.0062],,< 4.70,,< 4.70,,
KQGAMLAVFK [Peptide 88.0142],6.63,< 4.70,,6.28,,
TFPHAFPFDK [Peptide 88.0176],6.70,< 4.70,,5.30,,

Compound,pIC50 (A*6801),pIC50 (A*3301),pIC50 (HLA-A11 (A*1101)),pIC50 (A31 (A*3101)),active receptor (HLA-A11 (A*1101)),binding class for HLA-A11.2 (HLA-A11 (A*1101))
HLVPWDQLFR [Peptide 9012.0236],7.68,,,6.51,,
QQLLRREVY [Peptide E6-42],,,,,,weak affinity
FVVYRDSIPK [Peptide 88.0026],8.00,,,,,
IVKETELRK [Peptide 9012.0209],5.76,< 4.70,,< 4.70,,
GLVFGILIKR [Peptide 9012.0244],,5.58,6.31,5.68,,
LVYRDDFPK [Peptide 88.0280],6.96,,,,,
RQLKETELRK [Peptide 9012.0249],< 4.70,4.90,,< 4.70,,
ITIEKLLEK [Peptide 1587.31],7.80,4.96,7.85,,,
AQVLHLLKR [Peptide 88.0364],4.71,5.42,,7.01,,
WTIVYIEYR [Peptide 9017.0117],7.77,7.04,,,,
VQLDIQSTK [Peptide 78.0301],< 4.70,< 4.70,6.67,,,
KAGPGGYPRK [Peptide 73.0334],,< 4.70,,,,
RQRKIDWLIK [Peptide 9017.0247],< 4.70,< 4.70,,7.02,,
SQIQYWQLIR [Peptide 88.0199],,5.12,7.08,6.66,,
FAFADLTVVY [Peptide 78.0115],,< 4.70,,< 4.70,,
AVHLCTETSK [Peptide 88.0230],4.98,< 4.70,7.06,,,
AVDLSFFLK [Peptide 73.0184],,< 4.70,,,,
TTYAEPPK [Peptide 1556.11],6.49,< 4.70,,< 4.70,,
